Experimental data taken from patent US9512107B2, “Therapeutically active compositions and their methods of use” (Agios Pharmaceuticals, Inc., priority 2012, dated 2016).
Residue numbers refer to the chain shown, from its start. Like-named read-outs stand apart in the source and are kept apart here.

Assays:
IDH2 R140Q = target: T1, IDH2 R140Q (Homo sapiens, UniProt P48735, R140Q); assay: IDH2 R140Q enzymatic assay (cofactor depletion, similar format); format: biochemical
T1 sequence (P48735 40-452 R140Q): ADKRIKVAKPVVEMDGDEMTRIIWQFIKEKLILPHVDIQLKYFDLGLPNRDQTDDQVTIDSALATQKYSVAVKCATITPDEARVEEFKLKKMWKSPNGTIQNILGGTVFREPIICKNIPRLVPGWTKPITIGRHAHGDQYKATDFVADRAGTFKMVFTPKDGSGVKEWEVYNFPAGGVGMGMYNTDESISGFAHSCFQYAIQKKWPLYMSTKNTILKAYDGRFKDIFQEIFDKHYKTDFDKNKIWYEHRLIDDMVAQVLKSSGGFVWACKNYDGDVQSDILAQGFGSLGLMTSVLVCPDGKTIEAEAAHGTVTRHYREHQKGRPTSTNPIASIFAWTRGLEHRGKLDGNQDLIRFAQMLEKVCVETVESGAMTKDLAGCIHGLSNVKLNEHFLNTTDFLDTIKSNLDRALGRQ

IDH2 R172K = target: T2, IDH2 R172K (Homo sapiens, UniProt P48735, R172K); assay: IDH2 R172K enzymatic assay (NADPH cofactor depletion, diaphorase/resazurin readout); format: biochemical; details: read-out: Enz R172K
T2 sequence (P48735 40-452 R172K): T1 sequence (P48735 40-452 R140Q) with Q101R, R133K
How it was run: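 Cofactor depletion format: enzyme + compound 1 h RT; add substrate mix (50 μM NADPH, 6.3 mM α-KG); react 1 h RT; quench with stop mix (36 μg/ml diaphorase, 60 μM resazurin); read resorufin fluorescence as residual NADPH.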

[1] = test system: U87MG pLVX-IDH2 R140Q-neo cells; assay: U87MG pLVX-IDH2 R140Q-neo cell based assay, 2-HG in media by LC-MS at 48 hours; details: Homo sapiens, U-87 MG
How it was run: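 2-HG secreted into the medium was measured by LC-MS after 48 h of compound treatment (0.2% DMSO final) of U87MG pLVX-IDH2 R140Q-neo cells in DMEM/10% FBS. The same wells were assayed at 72 h by CellTiter-Glo luminescence for effects on growth.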

IC50 (IDH2 R140Q; read-out: Enz R140Q)	IC50 (IDH2 R172K)	IC50 [1]	Structure (SMILES)	IC50 (IDH2 R140Q; Enz R140Q)
< 100 nM	1000 to 10000 nM	100 to 1000 nM	CC(C)Nc1nc(Nc2cncnc2)nc(-c2ccccc2)n1 [Compound 266, N^2-isopropyl-6-phenyl-N^4-(pyrimidin-5-yl)-1,3,5-triazine-2,4-diamine]	–
< 100 nM	1000 to 10000 nM	100 to 1000 nM	O[C@@H]1CC[C@@H](Nc2nc(Nc3ccccc3)nc(-c3ccccc3)n2)C1 [Compound 267, (1R,3R)-3-(4-phenyl-6-(phenylamino)-1,3,5-triazin-2-ylamino)cyclopentanol]	–
< 100 nM	100 to 1000 nM	100 to 1000 nM	c1ccc(Nc2nc(NC3CCCOC3)nc(-c3ccccc3)n2)cc1 (stereo not drawn) [Compound 268, N^2,6-diphenyl-N^4-(tetrahydro-2H-pyran-3-yl)-1,3,5-triazine-2,4-diamine]	–
< 100 nM	100 to 1000 nM	< 100 nM	COCC(C)Nc1nc(Nc2ccccc2)nc(-c2ccccc2)n1 (stereo not drawn) [Compound 269, N^2-(1-methoxypropan-2-yl)-N^4,6-diphenyl-1,3,5-triazine-2,4-diamine]	–
< 100 nM	100 to 1000 nM	100 to 1000 nM	CC(C)Nc1nc(Nc2ccccc2)nc(-c2cc(C(F)(F)F)ccn2)n1 [Compound 270, N^2-isopropyl-N^4-phenyl-6-(4-(trifluoromethyl)pyridin-2-yl)-1,3,5-triazine-2,4-diamine]	–
100 to 1000 nM	< 100 nM	< 100 nM	CC(C)Nc1nc(Nc2ccnc(C(F)(F)F)c2)nc(-c2cccc(C(F)(F)F)n2)n1 [Compound 335, N^2-isopropyl-6-(6-(trifluoromethyl)pyridin-2-yl)-N^4-(2-(trifluoromethyl)pyridin-4-yl)-1,3,5-triazine-2,4-diamine]	–
100 to 1000 nM	100 to 1000 nM	< 100 nM	FC(F)(F)c1cc(Nc2nc(NC3COC3)nc(-c3ccccn3)n2)ccn1 [Compound 336, N^2-(oxetan-3-yl)-6-(pyridin-2-yl)-N^4-(2-(trifluoromethyl)pyridin-4-yl)-1,3,5-triazine-2,4-diamine]	–
100 to 1000 nM	1000 to 10000 nM	100 to 1000 nM	FC(F)(F)c1cccc(-c2nc(Nc3cnoc3)nc(NC3COC3)n2)n1 [Compound 337, N^2-(isoxazol-4-yl)-N^4-(oxetan-3-yl)-6-(6-(trifluoromethyl)pyridin-2-yl)-1,3,5-triazine-2,4-diamine]	–
< 100 nM	< 100 nM	< 100 nM	CC(C)Nc1nc(Nc2cc(F)cc(F)c2)nc(-c2cccc(Cl)n2)n1 [Compound 340, 6-(6-chloropyridin-2-yl)-N^2-(3,5-difluorophenyl)-N^4-isopropyl-1,3,5-triazine-2,4-diamine]	–
< 100 nM	100 to 1000 nM	< 100 nM	CC(C)Nc1nc(Nc2cccc(S(=O)(=O)NC3CC3)c2)nc(-c2ccccc2)n1 [Compound 341, N-cyclopropyl-3-(4-(isopropylamino)-6-phenyl-1,3,5-triazin-2-ylamino)benzenesulfonamide]	–
100 to 1000 nM	1000 to 10000 nM	1000 to 10000 nM	CC(C)Nc1nc(Nc2cccc(S(=O)(=O)NC(C)(C)C)c2)nc(-c2ccccc2)n1 [Compound 342, N-tert-butyl-3-(4-(isopropylamino)-6-phenyl-1,3,5-triazin-2-ylamino)benzenesulfonamide]	–
100 to 1000 nM	< 100 nM	< 100 nM	CC(C)Nc1nc(Nc2ccc(F)nc2)nc(-c2cccc(Cl)n2)n1 [Compound 344, 6-(6-chloropyridin-2-yl)-N^2-(6-fluoropyridin-3-yl)-N^4-isopropyl-1,3,5-triazine-2,4-diamine]	–
100 to 1000 nM	100 to 1000 nM	100 to 1000 nM	Fc1ccc(Nc2nc(NC3CCC3)nc(-c3ccccn3)n2)cn1 [Compound 345, N^2-cyclobutyl-N^4-(6-fluoropyridin-3-yl)-6-(pyridin-2-yl)-1,3,5-triazine-2,4-diamine]	–
100 to 1000 nM	1000 to 10000 nM	100 to 1000 nM	Cc1cc(Nc2nc(NC(=O)C(C)(C)C)nc(-c3ccccc3)n2)ccn1 [Compound 350]	–
100 to 1000 nM	100 to 1000 nM	< 100 nM	CC(C)Nc1nc(Nc2cccc(S(C)(=O)=O)c2)nc(-c2cccc(C(F)(F)F)n2)n1 [Compound 358, N^2-isopropyl-N^4-(3-(methylsulfonyl)phenyl)-6-(6-(trifluoromethyl)pyridin-2-yl)-1,3,5-triazine-2,4-diamine]	–
< 100 nM	< 100 nM	< 100 nM	CC(C)Nc1nc(Nc2cncc(C(F)(F)F)c2)nc(-c2ccccc2F)n1 [Compound 372, 6-(2-fluorophenyl)-N^2-isopropyl-N^4-(5-(trifluoromethyl)pyridin-3-yl)-1,3,5-triazine-2,4-diamine]	–
< 100 nM	< 100 nM	< 100 nM	CC(C)Nc1nc(Nc2cncc(F)c2)nc(-c2ccccc2F)n1 [Compound 374, 6-(2-fluorophenyl)-N^2-(5-fluoropyridin-3-yl)-N^4-isopropyl-1,3,5-triazine-2,4-diamine]	–
100 to 1000 nM	< 100 nM	< 100 nM	CC(C)Nc1nc(Nc2cncc(C(F)(F)F)c2)nc(-c2cccc(C(F)(F)F)n2)n1 [Compound 386, N^2-isopropyl-6-(6-(trifluoromethyl)pyridin-2-yl)-N^4-(5-(trifluoromethyl)pyridin-3-yl)-1,3,5-triazine-2,4-diamine]	–
< 100 nM	100 to 1000 nM	< 100 nM	CC(C)(C)OC(=O)Nc1nc(Nc2ccccc2)nc(-c2ccccc2)n1 [Compound 416, Tert-butyl 4-phenyl-6-(phenylamino)-1,3,5-triazin-2-ylcarbamate]	–
100 to 1000 nM	> 10000 nM	1000 to 10000 nM	CC(C)Nc1nc(Nc2ccc(S(C)(=O)=O)cc2)nc(-c2ccccc2)n1 [Compound 452, N2-isopropyl-N4-(4-(methylsulfonyl)phenyl)-6-phenyl-1,3,5-triazine-2,4-diamine]	–
100 to 1000 nM	1000 to 10000 nM	100 to 1000 nM	CC(C)Nc1nc(Nc2cccc(S(C)(=O)=O)c2)nc(-c2nc(F)ccc2F)n1 [Compound 454]	–
100 to 1000 nM	< 100 nM	< 100 nM	CC(C)Nc1nc(Nc2cc(F)cc(F)c2)nc(-c2nccc(C(F)(F)F)n2)n1 [Compound 455, N-(3,5-Difluoro-phenyl)-N′-isopropyl-6-(4-trifluoromethyl-pyrimidin-2-yl)-[1,3,5]triazine-2,4-diamine]	–
100 to 1000 nM	100 to 1000 nM	< 100 nM	CC(C)Nc1nc(Nc2cncc(F)c2)nc(-c2ncccc2F)n1 [Compound 456, N-(5-Fluoro-pyridin-3-yl)-6-(3-fluoro-pyridin-2-yl)-N′-isopropyl-[1,3,5]triazine-2,4-diamine]	–
100 to 1000 nM	100 to 1000 nM	< 100 nM	CC(C)Nc1nc(Nc2cc(F)cc(F)c2)nc(-c2nccc(N)n2)n1 [Compound 458, 6-(4-Amino-pyrimidin-2-yl)-N-(3,5-difluoro-phenyl)-N′-isopropyl-[1,3,5]triazine-2,4-diamine]	–
< 100 nM	< 100 nM	< 100 nM	CC(C)Nc1nc(Nc2cc(F)cc(F)c2)nc(-c2ncccc2F)n1 [Compound 459, N-(3,5-Difluoro-phenyl)-6-(3-fluoro-pyridin-2-yl)-N′-isopropyl-[1,3,5]triazine-2,4-diamine]	–
< 100 nM	< 100 nM	< 100 nM	CC(C)Nc1nc(Nc2cc(F)cc(F)c2)nc(-c2nc(F)ccc2F)n1 [Compound 460, N-(3,5-Difluoro-phenyl)-6-(3,6-difluoro-pyridin-2-yl)-N′-isopropyl-[1,3,5]triazine-2,4-diamine]	–
< 100 nM	< 100 nM	< 100 nM	COc1ccc(F)c(-c2nc(Nc3cc(F)cc(F)c3)nc(NC(C)C)n2)n1 [Compound 461, N-(3,5-Difluoro-phenyl)-6-(3-fluoro-6-methoxy-pyridin-2-yl)-N′-isopropyl-[1,3,5]triazine-2,4-diamine]	–

Structure (SMILES)	IC50 (IDH2 R140Q; read-out: Enz R140Q)	IC50 (IDH2 R172K)	IC50 [1]	IC50 (IDH2 R140Q; Enz R140Q)
CC(C)(O)CNc1nc(Nc2ccnc(C(F)(F)F)c2)nc(-c2cccc(C(F)(F)F)n2)n1 [Compound 409, 2-methyl-1-(4-(6-(trifluoromethyl)pyridin-2-yl)-6-(2-(trifluoromethyl)pyridin-4-ylamino)-1,3,5-triazin-2-ylamino)propan-2-ol]	–	100 to 1000 nM	< 100 nM	100 to 1000 nM
